Laboratory results published in patent publication US20250262201A1, “COMPOUNDS AND METHODS USEFUL FOR STABILIZING PHENYLALANINE HYDROXYLASE MUTATIONS” (Agios Pharmaceuticals, Inc., priority 2022, published 2025).

Biological target: T1, human PAH with the R408W mutation (Homo sapiens, UniProt P00439, R408W)
T1 construct: expressed in transfected cells
T1 sequence (P00439 1-452 R408W): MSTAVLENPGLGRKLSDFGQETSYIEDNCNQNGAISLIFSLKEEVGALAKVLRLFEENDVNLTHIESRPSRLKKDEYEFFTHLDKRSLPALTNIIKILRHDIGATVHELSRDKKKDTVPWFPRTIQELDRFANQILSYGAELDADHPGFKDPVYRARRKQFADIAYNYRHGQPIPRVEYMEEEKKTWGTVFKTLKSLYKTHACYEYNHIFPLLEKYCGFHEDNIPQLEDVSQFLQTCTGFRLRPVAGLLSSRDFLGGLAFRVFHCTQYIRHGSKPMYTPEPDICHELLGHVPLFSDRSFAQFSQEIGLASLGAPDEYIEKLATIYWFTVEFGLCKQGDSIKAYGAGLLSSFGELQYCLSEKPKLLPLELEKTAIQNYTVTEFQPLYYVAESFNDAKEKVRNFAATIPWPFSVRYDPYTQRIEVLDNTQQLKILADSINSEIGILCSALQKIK
Test: Cell Based Phenylalanine Flux Assay
Conditions: A375 cells expressing human R408W PAH; 24 hrs compound incubation; 13C-Tyrosine by LC-MS; average where tested multiple times; read-out: AC50

| SMILES | AC50 [nM] |
| --- | --- |
| O=C(c1nnc(-c2ccn(C(F)F)n2)o1)N1CCc2[nH]cnc2[C@H]1c1ncc2ccccc2n1 [Example 189, (S)-(5-(1-(difluoromethyl)-1H-pyrazol-3-yl)-1,3,4-oxadiazol-2-yl)(4-(quinazolin-2-yl)-6,7-dihydro-1H-imidazo[4,5-c]pyridin-5(4H)-yl)methanone] | < 500 |
| O=C(c1nnc(-c2ccn(C(F)F)n2)o1)N1CCc2[nH]cnc2[C@@H]1c1ncc2ccccc2n1 [Example 190, (R)-(5-(1-(difluoromethyl)-1H-pyrazol-3-yl)-1,3,4-oxadiazol-2-yl)(4-(quinazolin-2-yl)-6,7-dihydro-1H-imidazo[4,5-c]pyridin-5(4H)-yl)methanone] | 1000 to 5000 |
| O=C(c1nnc(-c2cnccn2)o1)N1CCc2[nH]cnc2[C@@H]1c1ncc2ccccc2n1 [Example 191, (R)-(5-(pyrazin-2-yl)-1,3,4-oxadiazol-2-yl)(4-(quinazolin-2-yl)-6,7-dihydro-1H-imidazo[4,5-c]pyridin-5(4H)-yl)methanone] | > 5000 |
| O=C(c1nnc(-c2cnccn2)o1)N1CCc2[nH]cnc2[C@H]1c1ncc2ccccc2n1 [Example 192, (S)-(5-(pyrazin-2-yl)-1,3,4-oxadiazol-2-yl)(4-(quinazolin-2-yl)-6,7-dihydro-1H-imidazo[4,5-c]pyridin-5(4H)-yl)methanone] | 500 to 1000 |
| Cc1nc(-c2ccccn2)oc1C(=O)N1CCc2[nH]cnc2[C@H]1c1ncc2ccccc2n1 [Example 193, (S)-(4-methyl-2-(pyridin-2-yl)oxazol-5-yl)(4-(quinazolin-2-yl)-6,7-dihydro-1H-imidazo[4,5-c]pyridin-5(4H)-yl)methanone] | < 500 |
| Cc1nc(-c2ccccn2)oc1C(=O)N1CCc2[nH]cnc2[C@@H]1c1ncc2ccccc2n1 [Example 194, (R)-(4-methyl-2-(pyridin-2-yl)oxazol-5-yl)(4-(quinazolin-2-yl)-6,7-dihydro-1H-imidazo[4,5-c]pyridin-5(4H)-yl)methanone] | 1000 to 5000 |
| O=C(c1nnc(-c2ccc(OC(F)(F)F)cn2)o1)N1CCc2[nH]cnc2[C@H]1c1ncc2ccccc2n1 [Example 195, (S)-(4-(quinazolin-2-yl)-6,7-dihydro-1H-imidazo[4,5-c]pyridin-5(4H)-yl)(5-(5-(trifluoromethoxy)pyridin-2-yl)-1,3,4-oxadiazol-2-yl)methanone] | < 500 |
| O=C(c1nnc(-c2ccc(OC(F)(F)F)cn2)o1)N1CCc2[nH]cnc2[C@@H]1c1ncc2ccccc2n1 [Example 196, (R)-(4-(quinazolin-2-yl)-6,7-dihydro-1H-imidazo[4,5-c]pyridin-5(4H)-yl)(5-(5-(trifluoromethoxy)pyridin-2-yl)-1,3,4-oxadiazol-2-yl)methanone] | > 5000 |
| Cn1cnc(-c2nnc(C(=O)N3CCc4[nH]cnc4[C@H]3c3ncc4ccccc4n3)o2)c1 [Example 197, (S)-(5-(1-methyl-1H-imidazol-4-yl)-1,3,4-oxadiazol-2-yl)(4-(quinazolin-2-yl)-6,7-dihydro-1H-imidazo[4,5-c]pyridin-5(4H)-yl)methanone] | 500 to 1000 |
| Cc1nn(C)cc1-c1nnc(C(=O)N2CCc3[nH]cnc3[C@@H]2c2ncc3ccccc3n2)o1 [Example 199, (R)-(5-(1,3-dimethyl-1H-pyrazol-4-yl)-1,3,4-oxadiazol-2-yl)(4-(quinazolin-2-yl)-6,7-dihydro-1H-imidazo[4,5-c]pyridin-5(4H)-yl)methanone] | > 5000 |
| Cc1nn(C)cc1-c1nnc(C(=O)N2CCc3[nH]cnc3[C@H]2c2ncc3ccccc3n2)o1 [Example 200, (S)-(5-(1,3-dimethyl-1H-pyrazol-4-yl)-1,3,4-oxadiazol-2-yl)(4-(quinazolin-2-yl)-6,7-dihydro-1H-imidazo[4,5-c]pyridin-5(4H)-yl)methanone] | < 500 |
| CC(C)(C)c1nnc(C(=O)N2CCc3[nH]cnc3[C@H]2c2ncc3ccccc3n2)o1 [Example 201, (S)-(5-(tert-butyl)-1,3,4-oxadiazol-2-yl)(4-(quinazolin-2-yl)-6,7-dihydro-1H-imidazo[4,5-c]pyridin-5(4H)-yl)methanone] | < 500 |
| CC(C)(C)c1nnc(C(=O)N2CCc3[nH]cnc3[C@@H]2c2ncc3ccccc3n2)o1 [Example 202, (R)-(5-(tert-butyl)-1,3,4-oxadiazol-2-yl)(4-(quinazolin-2-yl)-6,7-dihydro-1H-imidazo[4,5-c]pyridin-5(4H)-yl)methanone] | > 5000 |
| Cn1nccc1-c1nnc(C(=O)N2CCc3[nH]cnc3[C@H]2c2ncc3ccccc3n2)o1 [Example 203, (S)-(5-(1-methyl-1H-pyrazol-5-yl)-1,3,4-oxadiazol-2-yl)(4-(quinazolin-2-yl)-6,7-dihydro-1H-imidazo[4,5-c]pyridin-5(4H)-yl)methanone] | < 500 |
| Cn1nccc1-c1nnc(C(=O)N2CCc3[nH]cnc3[C@@H]2c2ncc3ccccc3n2)o1 [Example 204, (R)-(5-(1-methyl-1H-pyrazol-5-yl)-1,3,4-oxadiazol-2-yl)(4-(quinazolin-2-yl)-6,7-dihydro-1H-imidazo[4,5-c]pyridin-5(4H)-yl)methanone] | 1000 to 5000 |
| O=C(c1cnc(-c2ccccn2)s1)N1CCc2[nH]cnc2[C@H]1c1cc2ccccc2nn1 [Example 205, (S)-(4-(cinnolin-3-yl)-6,7-dihydro-1H-imidazo[4,5-c]pyridin-5(4H)-yl)(2-(pyridin-2-yl)thiazol-5-yl)methanone] | 500 to 1000 |
| O=C(c1cnc(-c2ccccn2)s1)N1CCc2[nH]cnc2[C@@H]1c1cc2ccccc2nn1 [Example 206, (R)-(4-(cinnolin-3-yl)-6,7-dihydro-1H-imidazo[4,5-c]pyridin-5(4H)-yl)(2-(pyridin-2-yl)thiazol-5-yl)methanone] | 1000 to 5000 |
| Cc1nc(-c2ccccn2)oc1C(=O)N1CCc2[nH]cnc2[C@@H]1c1cc2ccccc2nn1 [Example 207] | > 5000 |
| Cc1nc(-c2ccccn2)oc1C(=O)N1CCc2[nH]cnc2[C@H]1c1cc2ccccc2nn1 [Example 208, (S)-(4-(cinnolin-3-yl)-6,7-dihydro-1H-imidazo[4,5-c]pyridin-5(4H)-yl)(4-methyl-2-(pyridin-2-yl)oxazol-5-yl)methanone] | 500 to 1000 |
| CC(C)(O)c1nc(C(F)F)c(C(=O)N2CCc3[nH]cnc3[C@H]2c2cc3ccccc3nn2)o1 [Example 209, (S)-(4-(cinnolin-3-yl)-6,7-dihydro-1H-imidazo[4,5-c]pyridin-5(4H)-yl)(4-(difluoromethyl)-2-(2-hydroxypropan-2-yl)oxazol-5-yl)methanone] | < 500 |
| CC(C)(O)c1nc(C(F)F)c(C(=O)N2CCc3[nH]cnc3[C@@H]2c2cc3ccccc3nn2)o1 [Example 210, (R)-(4-(cinnolin-3-yl)-6,7-dihydro-1H-imidazo[4,5-c]pyridin-5(4H)-yl)(4-(difluoromethyl)-2-(2-hydroxypropan-2-yl)oxazol-5-yl)methanone] | 1000 to 5000 |
| Cc1ncoc1C(=O)N1CCc2[nH]cnc2[C@H]1c1cc2ccccc2nn1 [Example 211, (S)-(4-(cinnolin-3-yl)-6,7-dihydro-1H-imidazo[4,5-c]pyridin-5(4H)-yl)(4-methyloxazol-5-yl)methanone] | < 500 |
| O=C(c1ccnn1C(F)F)N1CCc2[nH]cnc2[C@H]1c1cc2ccccc2nn1 [Example 213, (S)-(4-(cinnolin-3-yl)-6,7-dihydro-1H-imidazo[4,5-c]pyridin-5(4H)-yl)(1-(difluoromethyl)-1H-pyrazol-5-yl)methanone] | < 500 |
| O=C(c1ccnn1C(F)F)N1CCc2[nH]cnc2[C@@H]1c1cc2ccccc2nn1 [Example 214, (R)-(4-(cinnolin-3-yl)-6,7-dihydro-1H-imidazo[4,5-c]pyridin-5(4H)-yl)(1-(difluoromethyl)-1H-pyrazol-5-yl)methanone] | 1000 to 5000 |
| O=C(C1CC1)N1CCc2[nH]cnc2[C@H]1c1cc2ccccc2nn1 [Example 215, (S)-(4-(cinnolin-3-yl)-6,7-dihydro-1H-imidazo[4,5-c]pyridin-5(4H)-yl)(cyclopropyl)methanone] | 1000 to 5000 |
| O=C(C1CC1)N1CCc2[nH]cnc2[C@@H]1c1cc2ccccc2nn1 [Example 216, (R)-(4-(cinnolin-3-yl)-6,7-dihydro-1H-imidazo[4,5-c]pyridin-5(4H)-yl)(cyclopropyl)methanone] | 1000 to 5000 |
| CC(C)(F)c1nnc(C(=O)N2CCc3[nH]cnc3[C@H]2c2cc3ccccc3nn2)o1 [Example 218, (S)-(4-(cinnolin-3-yl)-6,7-dihydro-1H-imidazo[4,5-c]pyridin-5(4H)-yl)(5-(2-fluoropropan-2-yl)-1,3,4-oxadiazol-2-yl)methanone] | 500 to 1000 |
| O=C(CCc1nccs1)N1CCc2[nH]cnc2[C@H]1c1ccc2ccccc2c1 [Example 219, (R)-1-(4-(naphthalen-2-yl)-6,7-dihydro-1H-imidazo[4,5-c]pyridin-5(4H)-yl)-3-(thiazol-2-yl)propan-1-one] | 500 to 1000 |
| O=C(c1cncs1)N1CCc2[nH]cnc2[C@H]1c1ccc2ccccc2c1 [Example 221, (R)-(4-(naphthalen-2-yl)-6,7-dihydro-1H-imidazo[4,5-c]pyridin-5(4H)-yl)(thiazol-5-yl)methanone] | 1000 to 5000 |
| O=C(c1cncs1)N1CCc2[nH]cnc2[C@@H]1c1ccc2ccccc2c1 [Example 222, (S)-(4-(naphthalen-2-yl)-6,7-dihydro-1H-imidazo[4,5-c]pyridin-5(4H)-yl)(thiazol-5-yl)methanone] | > 5000 |
